In publication PMC9858543, “Design, synthesis and evaluation of 2, 6, 8-substituted Imidazopyridine derivatives as potent PI3Kα inhibitors” (Journal of Enzyme Inhibition and Medicinal Chemistry, 2023):

Target: T1, PI3Kα (Homo sapiens, UniProt P42336)
T1 construct: purchased Invitrogen
Assay: In vitro PI3Kα enzymatic assay (ADP-Glo / Kinase-Glo, ATP 25 μM)
Assay type: biochemical
Conditions: PI3Kα, compound 10 μM, ATP 25 μM; mean ± SD of three determinations
Protocol: To screen the inhibitory activity of the target compounds against PI3Kα, the Kinase-Glo™ assay with ATP at 25 μM was utilised with PIK-75 as positive control. We chose to explore the SARs at three positions on the Imidazo[1,2-a]pyridine core. To start with, a set of 8-position modifications were prepared while keeping the morpholinyl amide substituent on 2-position fixed, since it allowed quick structure − activity profiling via coupling reactions of bromide with aryl borates or boronic acids. […] We then turned our attention back to the phenyl substituents.
Briefly, the compound, PI3K enzyme (PI3Kα from Invitrogen), the PIP2 (Life Technologies) substrate, and ATP (25 μM, Sigma) were diluted in kinase buffer to the indicated concentrations. The assay plate was covered and incubated at room temperature for 1 h. Then, the Kinase-Glo reagent (Promega) was added to the PI3Kα plate to stop the reaction, mixed briefly with centrifuge, shaken slowly on the shaker and then equilibrate for 120 min. Finally, add Kinase detection reagent to each well, shake 1 min, equilibrate for 30 min before reading on a plate reader for luminescence. The data were collected on Envision and presented in Excel. IC50 values were calculated from the inhibition curves.

T1 sequence (P42336 whole entry): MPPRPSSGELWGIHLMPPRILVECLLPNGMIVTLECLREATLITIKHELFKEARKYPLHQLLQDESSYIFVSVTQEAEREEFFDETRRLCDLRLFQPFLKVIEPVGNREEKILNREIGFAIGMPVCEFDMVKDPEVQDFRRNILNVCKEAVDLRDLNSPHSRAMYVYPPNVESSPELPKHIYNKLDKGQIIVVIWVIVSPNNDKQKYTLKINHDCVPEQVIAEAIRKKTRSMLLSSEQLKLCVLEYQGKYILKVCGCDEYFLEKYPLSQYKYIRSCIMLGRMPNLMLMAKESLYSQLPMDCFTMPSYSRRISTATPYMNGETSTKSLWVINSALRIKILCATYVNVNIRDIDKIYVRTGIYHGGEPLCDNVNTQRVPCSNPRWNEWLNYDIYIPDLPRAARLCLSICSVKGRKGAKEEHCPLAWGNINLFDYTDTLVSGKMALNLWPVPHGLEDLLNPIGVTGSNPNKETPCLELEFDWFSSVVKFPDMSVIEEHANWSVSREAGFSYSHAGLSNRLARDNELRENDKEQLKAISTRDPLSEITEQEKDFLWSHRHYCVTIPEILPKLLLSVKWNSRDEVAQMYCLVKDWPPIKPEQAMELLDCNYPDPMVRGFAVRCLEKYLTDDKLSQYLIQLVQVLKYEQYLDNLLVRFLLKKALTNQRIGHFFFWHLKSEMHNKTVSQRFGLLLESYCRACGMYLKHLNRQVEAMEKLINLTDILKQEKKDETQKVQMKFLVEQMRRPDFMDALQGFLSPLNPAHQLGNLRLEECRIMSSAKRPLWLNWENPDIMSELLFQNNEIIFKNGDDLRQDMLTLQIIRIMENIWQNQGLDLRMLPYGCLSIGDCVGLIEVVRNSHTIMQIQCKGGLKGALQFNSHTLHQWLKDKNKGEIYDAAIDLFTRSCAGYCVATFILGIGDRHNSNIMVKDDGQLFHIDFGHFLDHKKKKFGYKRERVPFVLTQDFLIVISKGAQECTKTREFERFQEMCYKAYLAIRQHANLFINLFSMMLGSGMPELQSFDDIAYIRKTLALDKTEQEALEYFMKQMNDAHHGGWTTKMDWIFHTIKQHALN
T1 sequence (P27986 whole entry partner): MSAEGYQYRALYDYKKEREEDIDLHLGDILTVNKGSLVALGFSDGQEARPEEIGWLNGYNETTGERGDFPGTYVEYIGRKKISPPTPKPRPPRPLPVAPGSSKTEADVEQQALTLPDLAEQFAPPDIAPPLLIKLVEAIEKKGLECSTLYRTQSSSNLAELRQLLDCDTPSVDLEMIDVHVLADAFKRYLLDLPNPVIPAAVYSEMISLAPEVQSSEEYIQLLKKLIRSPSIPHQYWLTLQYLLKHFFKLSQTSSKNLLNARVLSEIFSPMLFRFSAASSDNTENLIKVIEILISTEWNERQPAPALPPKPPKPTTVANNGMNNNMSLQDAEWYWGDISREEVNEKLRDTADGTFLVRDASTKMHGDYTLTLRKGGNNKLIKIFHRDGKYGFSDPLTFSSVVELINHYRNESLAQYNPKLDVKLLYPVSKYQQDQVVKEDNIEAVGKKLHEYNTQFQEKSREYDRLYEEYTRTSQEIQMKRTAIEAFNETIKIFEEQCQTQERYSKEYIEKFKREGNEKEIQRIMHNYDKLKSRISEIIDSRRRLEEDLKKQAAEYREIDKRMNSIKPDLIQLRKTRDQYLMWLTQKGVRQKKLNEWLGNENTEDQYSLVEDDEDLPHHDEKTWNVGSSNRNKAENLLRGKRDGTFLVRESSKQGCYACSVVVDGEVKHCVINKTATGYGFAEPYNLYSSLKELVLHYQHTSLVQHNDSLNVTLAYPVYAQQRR

In order of falling “% Inhibition at 10 μM” value:
1. (6-Methyl-8–(3-(morpholinosulfonyl)phenyl)Imidazo[1,2-a]pyridin-2-yl)(pyrrolidin-1-yl)methanone [Compound 27]  60.9 ± 6.0%
2. N,N-Diethyl-3–(6-methyl-2–(4-methylpiperidine-1-carbonyl)Imidazo[1,2-a]pyridin-8-yl)benzenesulfonamide [Compound 32]  50.6 ± 0.9%

Same assay, conditions: PI3Kα, compound 10 μM, ATP 25 μM; mean ± SD of three determinations; read-out: % Inhibition at 10 μM

In order of falling inhibition at 10 µM:
1. COc1ncc(-c2cc(C)cn3cc(C(=O)NCCN4CCOCC4)nc23)cc1NS(=O)(=O)c1ccc(F)cc1F [Compound 38, 8–(5-((2,4-Difluorophenyl)sulfonamido)-6-methoxypyridin-3-yl)-6-methyl-N-(2-morpholinoethyl)Imidazo[1,2-a]pyridine-2-carboxamide]  81.6 ± 2.8%
2. COc1ncc(-c2cc(C)cn3cc(C(=O)N4CCOCC4)nc23)cc1NS(=O)(=O)c1ccc(F)cc1 [Compound 42, 4-Fluoro-N-(2-methoxy-5–(6-methyl-2-(morpholine-4-carbonyl)Imidazo[1,2-a]pyridin-8-yl)pyridin-3-yl)benzenesulfonamide]  69.2 ± 6.4%
3. COc1ncc(-c2cc(C)cn3cc(C(=O)N4CCN(C)CC4)nc23)cc1NS(=O)(=O)c1ccc(F)cc1 [Compound 44, 4-Fluoro-N-(2-methoxy-5–(6-methyl-2–(4-methylpiperazine-1-carbonyl)Imidazo[1,2-a]pyridin-8-yl)pyridin-3-yl)benzenesulfonamide]  53.4 ± 5.1%
4. COc1ncc(-c2cc(C)cn3cc(C(=O)N4CCCC4)nc23)cc1NS(=O)(=O)c1ccccc1 [Compound 34, N-(2-methoxy-5–(6-methyl-2-(pyrrolidine-1-carbonyl)Imidazo[1,2-a]pyridin-8-yl)pyridin-3-yl)benzenesulfonamide]  49.8 ± 1.6%
5. Cc1cc(-c2ccc(NC(=O)c3cccc(F)c3)cc2)c2nc(C(=O)N3CCOCC3)cn2c1 [Compound 18, 3-Fluoro-N-(4–(6-methyl-2-(morpholine-4-carbonyl)Imidazo[1,2-a]pyridin-8-yl)phenyl)benzamide]  47.6 ± 3.9%
6. COc1ccc(-c2cc(C)cn3cc(C(=O)N4CCCC4)nc23)cn1 [Compound 25, (8–(6-Methoxypyridin-3-yl)-6-methylImidazo[1,2-a]pyridin-2-yl)(pyrrolidin-1-yl)methanone]  44.3 ± 1.5%
7. Cc1cc(-c2cccc(F)c2)c2nc(C(=O)N3CCCC3)cn2c1 [Compound 23, (8–(3-Fluorophenyl)-6-methylImidazo[1,2-a]pyridin-2-yl)(pyrrolidin-1-yl)methanone]  43.9 ± 1.8%
8. COc1ccc(-c2cc(C)cn3cc(C(=O)N4CCOCC4)nc23)cn1 [Compound 21, (8–(6-Methoxypyridin-3-yl)-6-methylImidazo[1,2-a]pyridin-2-yl)(morpholino)methanone]  39.9 ± 3%
9. Cc1cc(-c2ccc(F)cc2)c2nc(C(=O)N3CCCC3)cn2c1 [Compound 22, (8–(4-Fluorophenyl)-6-methylImidazo[1,2-a]pyridin-2-yl)(pyrrolidin-1-yl)methanone]  33.3 ± 4.2%
10. Cc1cc(-c2ccc(F)cc2)c2nc(C(=O)N3CCOCC3)cn2c1 [Compound 15, (8–(4-Fluorophenyl)-6-methylImidazo[1,2-a]pyridine-2-yl)(morpholino)methanone]  31.9 ± 2.9%
11. Cc1cc(-c2cccc(F)c2)c2nc(C(=O)N3CCC(C)CC3)cn2c1 [Compound 29, (8–(3-Fluorophenyl)-6-methylImidazo[1,2-a]pyridin-2-yl)(4-methylpiperidin-1-yl)methanone]  30.4 ± 3.1%
12. Cc1cc(-c2cccnc2)c2nc(C(=O)N3CCCC3)cn2c1 [Compound 24, (6-Methyl-8-(pyridin-3-yl)Imidazo[1,2-a]pyridin-2-yl)(pyrrolidin-1-yl)methanone]  29.6 ± 2.1%
13. Cc1cc(-c2ccccc2F)c2nc(C(=O)N3CCOCC3)cn2c1 [Compound 17, (8–(2-Fluorophenyl)-6-methylImidazo[1,2-a]pyridin-2-yl)(morpholino)methanone]  14.1 ± 2.7%

Same assay, conditions: read-out: % Inhibition at 10 μM, PI3Kα, compound 10 μM, ATP 25 μM; mean ± SD of three determinations

In the case of `Cc1ccc([N+](=O)[O-])cc1S(=O)(=O)N(C)/N=C/c1cnc2ccc(Br)cn12` [PIK-75, reference compound], the inhibition at 10 µM is reported as 98.2 ± 1.6%.
